Values quoted from earlier work as cited in publication PMC11258229 (Scientific Reports, 2024).

Columns and labels:
[1] = high permeability and low solubility

## CC[C@@H]([C@H](C)O)n1ncn(-c2ccc(N3CCN(c4ccc(OC[C@@H]5CO[C@@](Cn6cncn6)(c6ccc(F)cc6F)C5)cc4)CC3)cc2)c1=O [Posaconazole]
[1]
  biopharmaceutical classification system category: class II
other
  half-life (T1/2): twenty to sixty six
  mean T1/2: thirty five
  renal clearance, share of the total conjugate oral dosage: around 13%
